Assay results from a compilation of properties of binary mixtures (doi:10.1016/j.molliq.2022.119944).

Test: xn = mol fraction of the nth substance listed
Settings: 101.3 kPa

C=C[n+]1ccn(CCCC)c1.NCCCC[C@H](N)C(=O)[O-] + O
Settings	electrical conductivity [S/m]	viscosity [mPa·s]
293.15 K, x1 = 0.1	–	3.29
293.15 K, x1 = 0.7	–	95.3
303.15 K, x1 = 0.1	1.99	2.85
303.15 K, x1 = 0.3	2.61	5.21
303.15 K, x1 = 0.7	1.91	74.7
308.15 K, x1 = 0.3	2.78	–
308.15 K, x1 = 0.5	3.12	–
308.15 K, x1 = 0.7	2.3	–
308.15 K, x1 = 0.9	1.23	–
308.15 K, x1 = 1	0.154	–
313.15 K, x1 = 0.1	2.36	2.38
313.15 K, x1 = 0.7	2.54	55.38
313.15 K, x1 = 0.9	1.34	1167
313.15 K, x1 = 1	0.176	3700
318.15 K, x1 = 0.1	2.51	–
318.15 K, x1 = 0.3	3.29	–
318.15 K, x1 = 0.5	3.6	–
318.15 K, x1 = 0.7	2.95	–
318.15 K, x1 = 0.9	1.45	–
318.15 K, x1 = 1	0.195	–
323.15 K, x1 = 0.1	2.78	1.97
323.15 K, x1 = 0.3	3.56	3.57
323.15 K, x1 = 0.7	3.28	42.7
323.15 K, x1 = 0.9	1.62	950
323.15 K, x1 = 1	0.214	1961
333.15 K, x1 = 0.1	–	1.58
333.15 K, x1 = 0.3	–	2.36
333.15 K, x1 = 0.5	–	36.92
333.15 K, x1 = 0.7	–	36.62
333.15 K, x1 = 1	–	1174
343.15 K, x1 = 0.3	–	2.2
343.15 K, x1 = 0.7	–	33.98
343.15 K, x1 = 1	–	780
353.15 K, x1 = 0.5	–	36.44
353.15 K, x1 = 0.7	–	33.87
353.15 K, x1 = 0.9	–	185
353.15 K, x1 = 1	–	560

C=C[n+]1ccn(CCCC)c1.N[C@@H](CO)C(=O)[O-] + O
Settings	electrical conductivity [S/m]	viscosity [mPa·s]
293.15 K, x1 = 0.1	–	6.68
293.15 K, x1 = 0.5	–	95.4
293.15 K, x1 = 0.7	–	720
293.15 K, x1 = 0.9	–	2700
293.15 K, x1 = 1	–	18000
303.15 K, x1 = 0.3	2.86	13.51
303.15 K, x1 = 0.5	3.18	71.2
303.15 K, x1 = 0.7	2.61	490
303.15 K, x1 = 1	0.006	13600
308.15 K, x1 = 0.1	1.46	–
308.15 K, x1 = 0.3	3.08	–
308.15 K, x1 = 0.5	3.44	–
308.15 K, x1 = 0.7	2.84	–
308.15 K, x1 = 1	0.007	–
313.15 K, x1 = 0.1	1.61	5.94
313.15 K, x1 = 0.3	3.31	10.76
313.15 K, x1 = 0.5	3.75	54.6
313.15 K, x1 = 0.7	3.19	446
313.15 K, x1 = 0.9	1.1	1159
313.15 K, x1 = 1	0.01	9100
318.15 K, x1 = 0.1	1.78	–
318.15 K, x1 = 0.3	3.65	–
318.15 K, x1 = 0.5	4.05	–
318.15 K, x1 = 0.7	3.43	–
318.15 K, x1 = 0.9	1.42	–
318.15 K, x1 = 1	0.013	–
323.15 K, x1 = 0.1	1.9	4.84
323.15 K, x1 = 0.3	3.9	8.81
323.15 K, x1 = 0.5	4.46	44.4
323.15 K, x1 = 0.7	3.82	400
323.15 K, x1 = 0.9	1.69	820
333.15 K, x1 = 0.1	–	4.82
333.15 K, x1 = 0.3	–	7.96
333.15 K, x1 = 0.7	–	396
333.15 K, x1 = 0.9	–	670
333.15 K, x1 = 1	–	2800
343.15 K, x1 = 0.1	–	4.57
343.15 K, x1 = 0.3	–	7.27
343.15 K, x1 = 0.5	–	37.75
343.15 K, x1 = 0.7	–	387
343.15 K, x1 = 0.9	–	610
353.15 K, x1 = 0.3	–	7.11
353.15 K, x1 = 0.7	–	385
353.15 K, x1 = 0.9	–	540
